Results published in patent US6080542A, “Plant peptide transport gene” (priority 1997, dated 2000).
Where a SMILES comes first, the peptide text is derived from it. Where no end group is shown, it is not given here. Eth = ethionine

Key:
ATPTR2Ap = test: Uptake of L-leucyl-L-[3H]leucine and competition, PB1X-9B[pPTF4]
Procedure: The kinetics of ATPTR2A-mediated transport of peptides in yeast was evaluated by transforming pPTF4 into the S. cerevisiae peptide transport mutant, PB1X-9B and measuring the uptake of tritiated Leu-Leu dipeptide.
L-leucyl-L [^3 H]leucine trifluoroacetic acid (TFA) was synthesized by standard solution phase techniques (Naider, F. et al., J. Biol. Chem. 249:9-20 (1974)). Uptake of L-leucyl-L-[H]leucine was performed as by Island, M. D. et al (J. Bacteriol. 169:2132-2136 (1987)), with the following modifications. Cells were grown to late log phase (26×10^7 cells/ml) overnight in SC with 2% glucose, 1 mg/ml allantoin plus amino acids to supplement auxotrophic markers. To induce peptide transport. 5-15 ml from this culture was added to 100 ml fresh medium such that the density was 3.0×10^6 cells/ml. This culture was allowed to grow (approx. 2 hrs.) to a density of 6.0×10^6 cells/ml and then harvested by centrifugation. The pelleted cells were washed twice with 10 ml cold dH2 O and suspended in cold 2% glucose to a final concentration of 2×10^8 cells/ml and incubated at 30° C. for 15 min. 500 μl of cells were then added to an equal volume of reaction mixture (30° C.) and incubated at 30°-C. At 20, 40, 60, 90, and 120 sec. intervals, 190 μl portions were removed, filtered over filters (pore size, 0.45 μm; GN-6; Gelman Sciences, Inc., Ann Arbor, Mich.) and washed 2 times with 5 ml cold, sterile dH2 O and once with 5 ml dH2 O at room temperatures. Filters were placed in scintillation vials with 5 ml of Budget-Solve scintillation cocktail (Research Products International Corp., Mount Prospect, Ill.) and counted (liquid scintillation counter; LS-7000; Beckman Instruments, Inc., Fullerton, Calif.). The final concentration of the components in the uptake assay was 1% glucose, 40 mM sodium citrate-potassium phosphate buffer (pH 5.5), and 1.5×105 M L-leucyl-L-[^3 H]leucine (specific activity, 10 mCi/mmole). Uptake is expressed as nanomoles per mg dry weight.

PB1X-9B [1] = test: Growth on peptides as amino acid source, peptide transport mutant; type: cell-based, Saccharomyces cerevisiae; settings: PBIX-9B; 80 μM peptide in SC medium, 30° C., 72 hrs
Procedure: (§1) In addition, untransformed PB1X-9B, PB1X-9B transformed with plasmid pJP9 encoding the above-described yeast peptide transport gene, PB1X-2AΔ and PB1X-2A, the ptr2^+ parental strain to PB1X-2AΔ strain, were also assayed. Each strain was grown overnight in SC media plus uracil (non-transformed) or minus uracil (transformed) plus amino acids to stationary phase and harvested by centrifugation. Cells were then washed twice with sterile dH2 O and resuspended at 5×10^6 cells/ml. 5 μl of each suspension was applied as a small spot to a 2 ml volume of solid media in a 24 well plate. All peptides were suspended in sterile, deionized water and added to an equal volume of SC medium plus the appropriate amino acids and uracil when required. The medium for each assay thus consisted of SC medium plus or minus uracil supplemented with 80 μM of a specific peptide and auxotrophic requirements minus the amino acid components of the added peptide. The plates were incubated at 30° C. for 72 hrs. and then scored for growth.

PB1X-9B (pJP9) [2] = test: Growth on peptides, mutant transformed with yeast peptide transport gene; type: cell-based, Saccharomyces cerevisiae; settings: for growth on peptide (in words): PB1X-9B transformed with pJP9; for growth on peptide: PBIX-9B (pJP9), 80 μM peptide in SC medium, 30° C., 72 hrs
Procedure: as §1

PB1X-9B (pPTF4) [3] = test: Growth on peptides, mutant transformed with plant gene ATPTR2A; type: cell-based, Saccharomyces cerevisiae; settings: PBIX-9B (pPTF4); 80 μM peptide in SC medium, 30° C., 72 hrs
Procedure: as §1

PB1X-2AΔ (pDTF1) = test: Growth on peptides, deletion strain transformed with ATPTR2B; type: cell-based, Saccharomyces cerevisiae; set-up: key: +: Growth was scored as uniform colony formation; -: negative controls which showed no growth; settings: PBIX-2AΔ (pDTF1); 80 μM peptide in SC medium, 30° C., 72 hrs
Procedure: as §1, with “Thus, the peptide transport mutant PB1X-9B and deletion strain PB1X-2AΔ transformed with plasmids pPTF4 (ATPTR2A) or pDTF1 (ATPTR2B) were grown on various peptides to assess the specificity of the plant peptide transporter. In” for “In”

A. thaliana seeds = test: Seed germination with toxic peptides (minimum inhibitory concentration); type: in vivo, Arabidopsis thaliana; settings: seeds exposed to the toxic compound
Procedure: Thus, A. thaliana seeds and seedlings were exposed to Ethionine, Ala-Eth, Leu-Eth, Leu-fluorophenylalanine or oxalysine containing peptides, and the minimum inhibitory concentrations (MIC) were determined for each of the toxic compounds.
To measure the minimum inhibitory concentration of the toxic peptides, 10 to 15 A. thaliara seeds were place on solid Arabidopsis growth media with decreasing concentrations of toxic peptide. The seeds were incubated for 4 days in the dark and then scored for germination.

[4] = tested on: S. cerevisiae strains tested; test: Toxic peptide disk assay, statements covering several strains; type: cell-based, Saccharomyces cerevisiae
Procedure: (§2) Since ptr mutants are deficient in peptide transport, they are unable to take up toxic peptides. This inability renders such mutants resistant to the toxic effect of the peptides. In order to determine whether the polynucleotides of the present invention could restore toxic peptide sensitivity to ptr2 mutants, the sensitivity of plasmid-transformed cells was determined. Sensitivity to toxic amino acids and peptides was measured as described by Island, M. D. et al. (J. Bacteriol. 169:2132-2136 (1987)). Briefly, a filter disk containing 0.38 μmoles of the toxic compound was placed on a lawn containing 5×10^6 cells and the plate incubated at 30° C. for 1 to 2 days. Resulting halos were measured across their diameter. The toxic dipeptides Leu-Eth, Ala-Eth, Leu-F-Phe and Oxalysine were synthesized by standard solution phase techniques (Naider, F. et al., J. Biol. Chem. 249:9-20 (1974). The results of this experiment are shown in Table 2 (values are the mean of the diameters of the observed zone of inhibition in millimeters±standard error of the mean of at least two independent experiments).

PB1X-9B [5] = test: Toxic peptide disk assay, peptide transport mutant; type: cell-based, Saccharomyces cerevisiae; settings: for diameter of zone of inhibition: disk with 0.38 μmoles, lawn of 5×10^6 cells, 30° C., 1 to 2 days, mean ± standard error
Procedure: as §2

PB1X-9B (pJP9) [6] = test: Toxic peptide disk assay, mutant with yeast peptide transport gene; type: cell-based, Saccharomyces cerevisiae; settings: disk with 0.38 μmoles, lawn of 5×10^6 cells, 30° C., 1 to 2 days, mean ± standard error
Procedure: as §2

S288C = test: Toxic peptide disk assay, wild type; type: cell-based, Saccharomyces cerevisiae; settings: disk with 0.38 μmoles, lawn of 5×10^6 cells, 30° C., 1 to 2 days, mean ± standard error
Procedure: as §2

PB1X-9B (pPTF4) [7] = test: Toxic peptide disk assay, mutant with plant gene ATPTR2A; type: cell-based, Saccharomyces cerevisiae; settings: for diameter of zone of inhibition: disk with 0.38 μmoles, lawn of 5×10^6 cells, 30° C., 1 to 2 days, mean ± standard error
Procedure: as §2

Compound	growth on peptide (PB1X-9B [1])	growth on peptide (PB1X-9B (pJP9) [2])	growth on peptide (PB1X-9B (pPTF4) [3])	growth on peptide (PB1X-2AΔ (pDTF1))	also measured
CC(C)C[C@H](N)C(=O)O [leucine]					competition for uptake of [3H]-dileucine (ATPTR2Ap; 3 h): no effect; competition for uptake of [3H]-dileucine (ATPTR2Ap; PB1X-9B[pPTF4], pH 5.5, dileucine and leucine at 100-fold): did not reduce uptake
Trp-His-Trp-Leu-Gln-Leu: SEQ ID NO:9 (WHWLQL)	-	-	-	-	growth on peptide (in words) (PB1X-9B (pJP9) [2]): showed growth on all peptides except
Thr-Pro-Arg-Lys: SEQ ID NO:7 (TPRK)	-	-	-	-	growth on peptide (in words) (PB1X-9B (pJP9) [2]): showed growth on all peptides except
NCCOC[C@H](N)C(=O)O [Oxa-Lys, oxalysine]					root length at which growth was arrested (A. thaliana seeds): 1-2 mm
Ala-Ala-Leu: tripeptide growth substrate (AAL)	-	+	+		
fluorophenylalanine [F-Phe]					sensitivity to toxic compound ([4]; wild type (S288C) and transformants): less sensitive; sensitivity or resistance to toxic compound (PB1X-9B [5]): sensitive; diameter of zone of inhibition (PB1X-9B [5]): 14.0 ± 1.0 millimeters; diameter of zone of inhibition (PB1X-9B (pJP9) [6]): 20.0 ± 0.0 millimeters; diameter of zone of inhibition (S288C): 25.0 ± 4.0 millimeters; sensitivity or resistance to toxic compound (PB1X-9B (pPTF4) [7]): sensitive; diameter of zone of inhibition (PB1X-9B (pPTF4) [7]): 19.5 ± 0.5 millimeters
CC(C)C[C@H](NC(=O)[C@@H](N)Cc1c[nH]cn1)C(=O)O [His-Leu] (H-His-Leu-OH)	-	+	+		
Lys-Ala-Ala: tripeptide growth substrate (KAA)	-	+	+	+	
Lys-Leu-Leu-Ala-Eth: ethionine-containing peptide, SEQ ID NO:13 (KLLA-Eth)					sensitivity to toxic peptide ([4]; all strains tested): None of the strains tested were sensitive; diameter of zone of inhibition (PB1X-9B [5]): 0 millimeters; diameter of zone of inhibition (PB1X-9B (pJP9) [6]): 0 millimeters; diameter of zone of inhibition (S288C): 0 millimeters; diameter of zone of inhibition (PB1X-9B (pPTF4) [7]): 0 millimeters
